Molecules are shown by their SMILES.

Broadly, the IC50 is the concentration that gives 50% inhibition. High values mean lower potency, low ones higher potency. By pIC50 is commonly meant the IC50 on a negative log10 scale, so that one unit is a factor of ten. Higher therefore signals a small IC50.

This test can be described thus: Inhibition of rat human chimera TRPV1 channel expressed in CHO cells. Type of test: cell-based.
`CC(C)(C)c1ccc(/C=C(/C(=O)Nc2ccc3c(c2)OCCO3)c2ccccc2)cc1`: inhibition was half-maximal at 10700 nM (IC50) and the negative-log IC50 (pIC50) worked out at 4.97.

`O=C(/C=C/c1cccc(Br)c1)Nc1ccc2c(c1)OCCO2` showed an IC50 of 404 nM and a pIC50 of 6.39.

With `O=C(/C=C/c1ccc(C(F)(F)F)nc1N1CCCCC1)Nc1ccc2cccnc2c1`, the IC50 turned out to be 1 nM and the pIC50 is 8.94.

In the case of `Cc1ccc(/C(=C/C(=O)Nc2ccc3c(c2)OCCO3)c2ccc(C(C)(C)C)cc2)cc1`, the IC50 was determined as 93 nM and the pIC50 was determined as 7.03.

As for `O=C(/C=C/c1ccc(C(F)(F)F)cc1Br)Nc1ccc2c(c1)OCCO2`, the IC50 was found to be 453 nM and the pIC50 came out at 6.34.

`Cc1ccccc1/C(=C/C(=O)Nc1ccc2c(c1)OCCO2)c1ccc(C(C)(C)C)cc1` displayed an IC50 of 279 nM and a pIC50 of 6.55.

Turning to `CC(C)(C)c1ccc(/C=C/C(=O)Nc2cccc(OCCO)c2)cc1`, the IC50 turned out to be 859 nM and the pIC50 amounted to 6.07.

The compound `COc1ccccc1NC(=O)/C=C/c1ccc(C(C)(C)C)cc1` showed an IC50 of 859 nM and a negative logarithm of the IC50 (pIC50) of 6.07.

Regarding `O=C(/C=C/c1ccc(F)c(F)c1)Nc1ccc2c(c1)OCCO2`, the IC50 is 1310 nM and the pIC50 stood at 5.88.

The record behind these values is ChEMBL document CHEMBL1138244, “Three-dimensional quantitative structure-activity relationships and activity predictions of human TRPV1 channel antagonists: comparative molecular field analysis and comparative molecular similarity index analysis of cinnamides” (J Med Chem, 2007).
